% of inhibition, % binding and % of control data for seven compounds are collected here from ChEMBL document CHEMBL5465560, “Selectivity Literature for EUbOPEN Chemogenomic Library” (2024).

In experiment [1] the target is T1, Serine/threonine-protein kinase Sgk1 (Homo sapiens) (UniProt O00141).
T1 sequence (whole entry): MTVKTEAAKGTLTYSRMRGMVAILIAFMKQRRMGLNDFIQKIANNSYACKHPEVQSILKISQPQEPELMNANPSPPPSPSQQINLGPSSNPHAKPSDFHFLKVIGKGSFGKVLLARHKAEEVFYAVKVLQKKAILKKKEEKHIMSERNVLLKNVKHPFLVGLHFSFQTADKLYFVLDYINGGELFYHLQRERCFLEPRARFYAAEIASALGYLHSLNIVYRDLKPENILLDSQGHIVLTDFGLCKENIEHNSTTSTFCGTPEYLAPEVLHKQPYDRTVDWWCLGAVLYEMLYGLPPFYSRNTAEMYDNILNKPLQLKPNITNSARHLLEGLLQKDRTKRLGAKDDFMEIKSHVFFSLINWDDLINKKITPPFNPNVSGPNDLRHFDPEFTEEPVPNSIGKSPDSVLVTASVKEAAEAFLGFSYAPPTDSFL
The experiment can be described thus: Selectivity interaction (SelectScreen profiling (Invitrogen)) EUB0000607a SGK1. The settings on record: at 2 µM.

In experiment [2] the target is Serine/threonine-protein kinase mTOR (Homo sapiens, UniProt P42345). Description: Selectivity interaction (KinomeScan (DiscoverX)) EUB0000229b MTOR. The settings on record: at 10 µM.
Experiment [3] addresses Glycogen synthase kinase-3 alpha (Homo sapiens, UniProt P49840). The experiment can be described thus: Selectivity interaction (KinomeScan (DiscoverX)) EUB0000229b GSK3A. The settings on record: at 10 µM.
Experiment [4] deals with T2, Protein kinase C iota type (Homo sapiens) (UniProt P41743).
T2 sequence (whole entry): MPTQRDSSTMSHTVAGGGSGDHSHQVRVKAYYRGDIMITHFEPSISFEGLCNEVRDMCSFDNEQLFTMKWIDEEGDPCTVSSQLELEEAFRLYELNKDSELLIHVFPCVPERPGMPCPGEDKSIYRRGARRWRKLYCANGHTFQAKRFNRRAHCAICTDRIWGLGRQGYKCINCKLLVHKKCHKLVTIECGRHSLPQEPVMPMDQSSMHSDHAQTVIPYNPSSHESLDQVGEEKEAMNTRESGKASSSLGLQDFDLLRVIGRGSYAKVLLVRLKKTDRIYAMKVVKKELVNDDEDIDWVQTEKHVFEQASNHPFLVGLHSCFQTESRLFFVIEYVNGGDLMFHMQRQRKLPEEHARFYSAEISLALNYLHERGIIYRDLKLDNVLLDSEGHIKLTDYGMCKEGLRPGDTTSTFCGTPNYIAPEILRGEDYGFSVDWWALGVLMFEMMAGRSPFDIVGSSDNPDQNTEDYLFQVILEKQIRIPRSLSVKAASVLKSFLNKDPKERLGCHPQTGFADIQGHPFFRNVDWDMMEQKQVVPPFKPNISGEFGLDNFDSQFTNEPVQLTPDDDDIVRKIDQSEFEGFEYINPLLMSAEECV
Description: Selectivity interaction (KinomeScan (DiscoverX)) EUB0001619a PRKCI. The settings on record: at 1 µM.

Experiment [5] addresses T3, Dual serine/threonine and tyrosine protein kinase (Homo sapiens) (UniProt Q6XUX3).
T3 sequence (whole entry): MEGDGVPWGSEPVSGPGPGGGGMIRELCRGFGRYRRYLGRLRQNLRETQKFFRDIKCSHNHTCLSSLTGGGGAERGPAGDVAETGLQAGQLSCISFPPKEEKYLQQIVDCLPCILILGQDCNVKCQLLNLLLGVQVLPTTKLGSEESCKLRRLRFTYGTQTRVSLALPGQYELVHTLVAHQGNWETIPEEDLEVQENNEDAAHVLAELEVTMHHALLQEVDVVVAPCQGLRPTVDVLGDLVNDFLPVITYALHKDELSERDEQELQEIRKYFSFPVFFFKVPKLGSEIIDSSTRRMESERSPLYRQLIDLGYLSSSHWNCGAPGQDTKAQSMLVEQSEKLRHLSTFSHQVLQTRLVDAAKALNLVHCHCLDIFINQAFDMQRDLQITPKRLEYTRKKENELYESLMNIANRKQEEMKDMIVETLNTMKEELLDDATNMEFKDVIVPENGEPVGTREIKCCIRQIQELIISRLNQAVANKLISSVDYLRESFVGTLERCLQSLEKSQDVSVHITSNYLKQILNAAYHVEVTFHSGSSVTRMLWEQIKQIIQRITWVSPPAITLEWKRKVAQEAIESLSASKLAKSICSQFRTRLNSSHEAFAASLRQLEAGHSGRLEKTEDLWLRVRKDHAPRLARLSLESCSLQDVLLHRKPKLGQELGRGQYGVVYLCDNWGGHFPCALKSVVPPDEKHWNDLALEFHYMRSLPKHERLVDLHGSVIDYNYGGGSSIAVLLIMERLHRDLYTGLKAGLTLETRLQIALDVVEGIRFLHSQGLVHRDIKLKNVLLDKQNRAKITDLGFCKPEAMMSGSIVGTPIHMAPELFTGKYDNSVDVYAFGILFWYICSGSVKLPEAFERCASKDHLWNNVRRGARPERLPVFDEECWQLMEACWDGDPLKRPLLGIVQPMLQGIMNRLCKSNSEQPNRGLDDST
Description: Selectivity interaction (KinomeScan (DiscoverX)) EUB0001049a DSTYK. The note with it: at 1 µM.

The target in experiment [6] is T4, Serine/threonine-protein kinase MAK (Homo sapiens) (UniProt P20794).
T4 sequence (whole entry): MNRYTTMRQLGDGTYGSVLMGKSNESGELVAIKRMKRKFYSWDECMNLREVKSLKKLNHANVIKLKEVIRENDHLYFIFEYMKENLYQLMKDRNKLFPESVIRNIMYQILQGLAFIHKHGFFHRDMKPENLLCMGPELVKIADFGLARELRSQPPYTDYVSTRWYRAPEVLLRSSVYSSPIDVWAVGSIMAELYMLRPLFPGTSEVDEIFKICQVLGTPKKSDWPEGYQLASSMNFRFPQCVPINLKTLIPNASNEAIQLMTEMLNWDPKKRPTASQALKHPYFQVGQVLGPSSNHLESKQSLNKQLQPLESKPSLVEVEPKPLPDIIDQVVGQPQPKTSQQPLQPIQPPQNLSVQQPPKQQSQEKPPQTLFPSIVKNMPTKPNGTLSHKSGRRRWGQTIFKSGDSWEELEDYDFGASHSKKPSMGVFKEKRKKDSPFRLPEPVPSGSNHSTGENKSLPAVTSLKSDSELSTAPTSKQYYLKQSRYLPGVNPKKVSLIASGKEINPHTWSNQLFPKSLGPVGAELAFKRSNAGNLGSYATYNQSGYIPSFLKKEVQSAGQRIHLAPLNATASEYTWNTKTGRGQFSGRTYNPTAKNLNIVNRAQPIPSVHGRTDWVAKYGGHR
Description: Selectivity interaction (KinomeScan (DiscoverX)) EUB0000092b MAK. The note with it: at 10 µM.

Experiment [7] concerns the target Mitogen-activated protein kinase kinase kinase kinase 5 (Homo sapiens) (UniProt Q9Y4K4). The experiment can be described thus: Selectivity interaction (KinomeScan (DiscoverX)) EUB0000618a MAP4K5. The note with it: at 10 µM.
In experiment [8] the target is Serine/threonine-protein kinase PAK 3 (Homo sapiens) (UniProt O75914). Description: Selectivity interaction (Upstate Kinase Profiler service (Millipore)) EUB0000056c PAK3. The note with it: at 1 µM.

The structures appear in SMILES notation.

Chain of Serine/threonine-protein kinase PAK 3 (Homo sapiens) (O75914 whole entry, looked up): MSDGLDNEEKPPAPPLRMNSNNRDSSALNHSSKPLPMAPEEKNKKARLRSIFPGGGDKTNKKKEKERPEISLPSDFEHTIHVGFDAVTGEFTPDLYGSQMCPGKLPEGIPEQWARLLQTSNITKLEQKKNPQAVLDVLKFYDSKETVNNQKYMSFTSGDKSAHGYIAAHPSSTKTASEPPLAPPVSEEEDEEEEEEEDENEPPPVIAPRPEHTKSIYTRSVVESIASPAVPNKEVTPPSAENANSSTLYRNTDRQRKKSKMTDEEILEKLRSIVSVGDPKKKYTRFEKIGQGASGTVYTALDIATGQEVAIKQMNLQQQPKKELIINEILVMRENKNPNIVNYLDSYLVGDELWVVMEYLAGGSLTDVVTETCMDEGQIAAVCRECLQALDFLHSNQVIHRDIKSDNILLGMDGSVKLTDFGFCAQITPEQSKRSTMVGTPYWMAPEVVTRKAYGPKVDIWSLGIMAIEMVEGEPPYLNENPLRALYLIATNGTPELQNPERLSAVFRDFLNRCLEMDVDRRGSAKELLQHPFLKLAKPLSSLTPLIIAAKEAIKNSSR
Chain of Glycogen synthase kinase-3 alpha (P49840 2-483 limits assumed): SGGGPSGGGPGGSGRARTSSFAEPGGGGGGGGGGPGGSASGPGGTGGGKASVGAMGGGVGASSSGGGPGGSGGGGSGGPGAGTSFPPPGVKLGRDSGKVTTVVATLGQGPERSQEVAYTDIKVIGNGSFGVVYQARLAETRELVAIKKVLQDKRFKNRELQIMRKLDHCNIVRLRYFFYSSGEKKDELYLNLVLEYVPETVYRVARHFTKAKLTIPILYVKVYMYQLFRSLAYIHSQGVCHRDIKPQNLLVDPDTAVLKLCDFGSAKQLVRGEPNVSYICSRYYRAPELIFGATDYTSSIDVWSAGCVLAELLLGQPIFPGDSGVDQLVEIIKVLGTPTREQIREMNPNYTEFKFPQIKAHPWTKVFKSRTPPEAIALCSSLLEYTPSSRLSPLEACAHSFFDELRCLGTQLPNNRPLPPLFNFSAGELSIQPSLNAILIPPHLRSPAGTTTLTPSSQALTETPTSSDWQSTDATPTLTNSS
Chain of Mitogen-activated protein kinase kinase kinase kinase 5 (Homo sapiens) (Q9Y4K4 whole entry, looked up): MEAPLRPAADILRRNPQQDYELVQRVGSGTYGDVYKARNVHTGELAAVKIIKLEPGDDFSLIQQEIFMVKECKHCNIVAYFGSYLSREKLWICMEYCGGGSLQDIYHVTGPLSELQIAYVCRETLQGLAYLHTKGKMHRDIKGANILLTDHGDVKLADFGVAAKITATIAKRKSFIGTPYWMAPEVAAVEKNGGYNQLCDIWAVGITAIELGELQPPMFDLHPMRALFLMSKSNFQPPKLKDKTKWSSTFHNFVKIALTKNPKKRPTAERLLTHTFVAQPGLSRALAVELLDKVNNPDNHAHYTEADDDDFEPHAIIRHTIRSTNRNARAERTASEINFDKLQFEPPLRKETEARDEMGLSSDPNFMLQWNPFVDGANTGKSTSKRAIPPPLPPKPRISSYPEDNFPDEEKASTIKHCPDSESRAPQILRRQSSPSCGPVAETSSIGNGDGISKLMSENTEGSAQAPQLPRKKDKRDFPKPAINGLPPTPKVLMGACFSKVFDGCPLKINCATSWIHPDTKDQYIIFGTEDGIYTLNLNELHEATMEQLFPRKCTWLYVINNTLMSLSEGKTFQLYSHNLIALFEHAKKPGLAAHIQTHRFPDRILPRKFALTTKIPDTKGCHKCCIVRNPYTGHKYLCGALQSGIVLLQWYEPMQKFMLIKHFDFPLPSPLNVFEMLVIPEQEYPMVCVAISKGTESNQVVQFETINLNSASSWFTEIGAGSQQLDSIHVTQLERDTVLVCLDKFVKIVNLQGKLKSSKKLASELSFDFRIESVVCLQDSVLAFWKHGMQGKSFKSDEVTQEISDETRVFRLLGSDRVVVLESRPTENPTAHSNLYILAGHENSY

In the case of `CNC(=O)Nc1ccc(-c2nc(N3CC4CCC(C3)O4)c3cnn(C4CCC5(CC4)OCCO5)c3n2)cc1`, in experiment [1], the % of inhibition is -2%.
With `COc1cc(N(C)c2ccnc3ccc(C(F)(F)F)cc23)cc(OC)c1OC`, the values for the % binding in experiment [2] and in experiment [3] were 94% and 93%, respectively.
Compound `N#Cc1cccc(-c2c[nH]c3ncnc(N4CCOCC4)c23)c1` returned a % of control in experiment [4] of 100%.
For `COc1cc(Nc2nc(C)cc(-c3cnn4nc(OC)ccc34)n2)cc(C(F)(F)F)c1`, in experiment [5], the % of control turned out to be 79%.
For `CCC(=O)N1CCN(c2ccc(-n3c(=O)ccc4cnc5ccc(-c6cnc7ccccc7c6)cc5c43)cc2C(F)(F)F)CC1`, the % of control in experiment [6] was 68%.
For `O[C@H]1CC[C@H](Nc2ncc3nc(Nc4c(F)cc(F)cc4F)n([C@H]4CCOC4)c3n2)CC1`, the % of control in experiment [7] was 100%.
For the compound `Cc1ccc(-c2ccc3c(ccc4sc5c(c43)NC[C@@H](C)NC5=O)n2)cn1`, the % of inhibition in experiment [8] was found to be 37%.
